Laboratory results from patent US8637237B2, “Methods, compositions, and systems for the identification of species-specific or developmental stage-specific insecticides” (The University of North Carolina at Greensboro, priority 2003, dated 2014).

Key:
Format in all cases: cell-based
EcRB1/USP = target: T1, EcRB1/USP (Drosophila melanogaster, UniProt P34021); experiment: EcRB1 isoform with USP (VP16CfUSP), (EcRE)5-ΔMTV-LUC in CHO cells
T1 construct: The plasmid encodes a version of EcRB1 that includes 878 amino acids, and deletes the F domain; expressed in transfected cells; host or cells: CHO
T1 sequence (P34021 1-878): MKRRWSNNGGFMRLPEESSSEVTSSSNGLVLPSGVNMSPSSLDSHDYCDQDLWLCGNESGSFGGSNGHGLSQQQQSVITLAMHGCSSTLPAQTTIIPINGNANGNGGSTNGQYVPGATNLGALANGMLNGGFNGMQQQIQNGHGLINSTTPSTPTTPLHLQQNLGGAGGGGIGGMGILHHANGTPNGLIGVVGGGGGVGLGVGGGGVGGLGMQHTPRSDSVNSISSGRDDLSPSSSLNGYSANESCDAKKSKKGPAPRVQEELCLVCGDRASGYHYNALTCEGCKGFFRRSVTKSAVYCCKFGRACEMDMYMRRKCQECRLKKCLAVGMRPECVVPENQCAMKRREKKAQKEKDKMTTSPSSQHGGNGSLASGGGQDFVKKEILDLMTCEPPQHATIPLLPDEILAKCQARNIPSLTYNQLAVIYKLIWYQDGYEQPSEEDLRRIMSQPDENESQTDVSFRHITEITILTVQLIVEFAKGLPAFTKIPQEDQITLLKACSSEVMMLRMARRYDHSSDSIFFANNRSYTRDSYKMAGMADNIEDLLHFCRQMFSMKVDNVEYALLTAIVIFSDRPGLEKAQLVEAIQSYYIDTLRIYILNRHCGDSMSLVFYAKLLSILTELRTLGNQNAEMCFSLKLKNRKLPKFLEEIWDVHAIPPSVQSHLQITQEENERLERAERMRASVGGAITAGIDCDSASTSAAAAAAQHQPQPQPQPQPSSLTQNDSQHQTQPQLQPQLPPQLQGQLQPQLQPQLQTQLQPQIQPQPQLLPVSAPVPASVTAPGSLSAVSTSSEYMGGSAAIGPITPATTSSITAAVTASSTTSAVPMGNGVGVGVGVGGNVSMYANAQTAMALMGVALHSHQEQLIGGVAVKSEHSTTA
T1 sequence (O76202 192-472 partner): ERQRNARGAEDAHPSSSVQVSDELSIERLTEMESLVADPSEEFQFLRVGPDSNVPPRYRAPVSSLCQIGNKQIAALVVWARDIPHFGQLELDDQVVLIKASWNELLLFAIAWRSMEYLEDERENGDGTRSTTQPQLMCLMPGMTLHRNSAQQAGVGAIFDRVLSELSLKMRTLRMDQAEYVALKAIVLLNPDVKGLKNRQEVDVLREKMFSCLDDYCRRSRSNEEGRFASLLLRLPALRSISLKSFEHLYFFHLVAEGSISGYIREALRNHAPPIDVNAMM
Method: These experiments employed a mammalian cell culture system using Chinese hamster ovary cells (CHO) to evaluate the transcriptional function of Drosophila melanogaster EcR and USP using methods described previously (U.S. Patent Application Publication No: 2005/0049230; Henrich et al, 2003). Cells were seeded in 6-well polypropylene culture plates (Falcon) with 10^5 cells per well on the day prior to transfection. Transfection was subsequently performed using either calcium phosphate (Kitareewan et al., 1996, Mol. Biol. Cell, 7:1153-1196) or a GenePorter reagent (Gene Therapy Systems, Inc; San Diego, Calif.) following manufacturer's protocols. Each well received 1.25 μg of (EcRE)5-ΔMTV-CAT (five copies of the hsp27 EcRE inserted into an mouse mammary tumor virus (MTV) promoter upstream of the chloramphenicol acetyltransferase (CAT) gene) or (EcRE)5-ΔMTV-LUC (the same promoter attached to firefly luciferase), 1.25 μg of pCH111 (SV40 early promoter linked to the β-galactosidase gene) to normalize CAT activity, and 0.25 μg of each expression plasmid (EcR, FXR, RXR, USP) that was tested. The cells were incubated with plasmid DNA for seven hours and then washed with 1×PBS. Muristerone A (murA; Alexis Biochemicals) or 20-hydroxyecdysone (20E; Sigma) dissolved in ethanol to a concentration of 10 mM was diluted as necessary to the final assay concentration (FAC) in 2 ml of fresh incubation medium that was then applied to the cells. Similarly, JHIII (Sigma) was dissolved in dimethyl sulfoxide (DMSO) to a concentration of […] and diluted into the incubation medium to its final assay concentration (20, 40, 80, 160 μM). […] A corresponding volume of ethanol and DMSO were added to control cells for all experiments. For all experiments, the cells were allowed to incubate with the medium for 24 hours before collection and cell lysates were prepared by described methods (Kitareewan et al., 1996). Both β-galactosidase and CAT reporter activity were measured based on previously used methods (Kitareewan et al, 1996). Luciferase assays using luciferrin followed the specifications of the manufacturer.
Transcriptional activity, measured as ^14C-chloramphenicol counts (for measuring CAT activity) or relative luciferase activity (RLU) was quantified for each cell lysate. The counts were then normalized by adjusting for differences in β-galactosidase activity, since β-galactosidase expression is controlled by a constitutive promoter and provides an estimate of cell mass. Data were normalized as fold-induction based on differences in reporter gene activity between hormonally treated and control cells.

VP16dEcR/USP = target: T2, VP16dEcR/USP (Drosophila melanogaster, UniProt P34021); experiment: VP16dEcR with USP (VP16CfUSP), reporter in CHO cells
T2 construct: expressed in transfected cells; host or cells: CHO
Method: (§1) These experiments employed a mammalian cell culture system using Chinese hamster ovary cells (CHO) to evaluate the transcriptional function of Drosophila melanogaster EcR and USP using methods described previously (U.S. Patent Application Publication No: 2005/0049230; Henrich et al, 2003). Cells were seeded in 6-well polypropylene culture plates (Falcon) with 10^5 cells per well on the day prior to transfection. Transfection was subsequently performed using either calcium phosphate (Kitareewan et al., 1996, Mol. Biol. Cell, 7:1153-1196) or a GenePorter reagent (Gene Therapy Systems, Inc; San Diego, Calif.) following manufacturer's protocols. Each well received 1.25 μg of (EcRE)5-ΔMTV-CAT (five copies of the hsp27 EcRE inserted into an mouse mammary tumor virus (MTV) promoter upstream of the chloramphenicol acetyltransferase (CAT) gene) or (EcRE)5-ΔMTV-LUC (the same promoter attached to firefly luciferase), 1.25 μg of pCH111 (SV40 early promoter linked to the β-galactosidase gene) to normalize CAT activity, and 0.25 μg of each expression plasmid (EcR, FXR, RXR, USP) that was tested. […] Both β-galactosidase and CAT reporter activity were measured based on previously used methods (Kitareewan et al, 1996). […]
(§2) Transcriptional activity, measured as ^14C-chloramphenicol counts (for measuring CAT activity) or relative luciferase activity (RLU) was quantified for each cell lysate. […]

EcRB1/RXR = target: T3, EcRB1/RXR (Drosophila melanogaster, UniProt P34021); experiment: EcRB1 isoform with RXR, reporter in CHO cells
T3 construct: The plasmid encodes a version of EcRB1 that includes 878 amino acids, and deletes the F domain; expressed in transfected cells; host or cells: CHO
Method: as §1, §2

## CC(C)(O)CC[C@@H](O)[C@](C)(O)[C@H]1CC[C@@]2(O)C3=CC(=O)[C@@H]4C[C@@H](O)[C@@H](O)C[C@]4(C)[C@H]3CC[C@]12C [20E, 20-hydroxyecdysone]
EcRB1/USP; EcRB1 + VP16CfUSP, 10 μM 20E
  transcriptional response to 20E: consistent and discernible transcriptional response
EcRB1/USP; EcRB1/USP, 10 μM 20E
  20E (inducibility): + ((+) designates a change in transcriptional level that exceeds 2.5-fold)

## COC(=O)/C=C(\C)CC/C=C(\C)CC[C@H]1OC1(C)C [JHIII, juvenile hormone III]
VP16dEcR/USP; 0.1 μM murA + 80 μM JHIII
  MurA + JHIII (JHIII potentiation): + ((+) indicates observed potentiation that exceeds 2-fold above the levels observed with ecdysteroid alone)
EcRB1/RXR; 0.1 μM murA + 80 μM JHIII
  MurA + JHIII (JHIII potentiation): + ((+) indicates observed potentiation that exceeds 2-fold above the levels observed with ecdysteroid alone)
EcRB1/USP; EcRB1 + VP16CfUSP, 80 μM JHIII with 0.1 μM murA
  potentiation of murA response by JHIII: potentiated
EcRB1/USP; EcRB1/USP, 0.1 μM murA + 80 μM JHIII
  MurA + JHIII (JHIII potentiation): + ((+) indicates observed potentiation that exceeds 2-fold above the levels observed with ecdysteroid alone)

## CC(C)CC[C@@H](O)[C@](C)(O)[C@H]1CC[C@@]2(O)C3=CC(=O)[C@]4(O)C[C@@H](O)[C@@H](O)C[C@]4(C)[C@H]3[C@H](O)C[C@]12C [murA, muristerone A]
VP16dEcR/USP; 0.1 μM murA
  MurA (inducibility): + ((+) designates a change in transcriptional level that exceeds 2.5-fold)
EcRB1/RXR; 0.1 μM murA
  MurA (inducibility): + ((+) designates a change in transcriptional level that exceeds 2.5-fold)
EcRB1/USP; EcRB1 + VP16CfUSP, 1 μM murA
  induction by murA: 30-40 fold
EcRB1/USP; EcRB1/USP, 0.1 μM murA
  MurA (inducibility): + ((+) designates a change in transcriptional level that exceeds 2.5-fold)
